Measurements taken from PubChem BioAssay (NCI).
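Dose response: 5 concentrations. Exposure: 48 h. Format: 96-well plates. Endpoint: linear interpolation; highest concentration if not reached. TGI: concentration producing complete growth inhibition.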

Key:
Test in all cases: growth of human tumour cells (NCI), 48 h
SN12C renal = tested on: SN12C renal
786-0 renal = tested on: 786-0 renal
BT-549 breast = tested on: BT-549 breast
SF-539 CNS = tested on: SF-539 CNS
NCI-H522 lung = tested on: NCI-H522 lung
OVCAR-8 ovarian = tested on: OVCAR-8 ovarian
HOP-62 NSCLC = tested on: HOP-62 NSCLC
HCT-116 colon = tested on: HCT-116 colon
A549 NSCLC = tested on: A549 NSCLC
KM12 colon = tested on: KM12 colon
CAKI-1 renal = tested on: CAKI-1 renal
ACHN renal = tested on: ACHN renal
IGROV1 ovarian = tested on: IGROV1 ovarian
UO-31 renal = tested on: UO-31 renal
SW-620 colon = tested on: SW-620 colon
OVCAR-3 ovarian = tested on: OVCAR-3 ovarian
SK-MEL-5 melanoma = tested on: SK-MEL-5 melanoma
CCRF-CEM leukemia = tested on: CCRF-CEM leukemia
RPMI-8226 leukemia = tested on: RPMI-8226 leukemia
OVCAR-4 ovarian = tested on: OVCAR-4 ovarian
HCT-15 colon = tested on: HCT-15 colon
M14 melanoma = tested on: M14 melanoma
NCI-H23 lung = tested on: NCI-H23 lung
SR leukemia = tested on: SR leukemia
OVCAR-5 ovarian = tested on: OVCAR-5 ovarian
SF-268 CNS = tested on: SF-268 CNS
EKVX NSCLC = tested on: EKVX NSCLC
K-562 leukemia = tested on: K-562 leukemia
SK-MEL-28 melanoma = tested on: SK-MEL-28 melanoma
MOLT-4 leukemia = tested on: MOLT-4 leukemia
T-47D breast = tested on: T-47D breast
SNB-19 CNS = tested on: SNB-19 CNS
HCC-2998 colon = tested on: HCC-2998 colon
HOP-92 NSCLC = tested on: HOP-92 NSCLC
SK-OV-3 ovarian = tested on: SK-OV-3 ovarian
SK-MEL-2 melanoma = tested on: SK-MEL-2 melanoma
UACC-62 melanoma = tested on: UACC-62 melanoma
SF-295 CNS = tested on: SF-295 CNS
UACC-257 melanoma = tested on: UACC-257 melanoma
HT29 colon = tested on: HT29 colon
HL-60(TB) leukemia = tested on: HL-60(TB) leukemia
MALME-3M melanoma = tested on: MALME-3M melanoma
NCI-H226 lung = tested on: NCI-H226 lung
A498 renal = tested on: A498 renal
NCI-H460 lung = tested on: NCI-H460 lung
COLO 205 colon = tested on: COLO 205 colon
PC-3 prostate = tested on: PC-3 prostate
MDA-MB-231 breast = tested on: MDA-MB-231 breast
LOX IMVI melanoma = tested on: LOX IMVI melanoma
MDA-MB-435 = tested on: MDA-MB-435
TK-10 renal = tested on: TK-10 renal
DU-145 prostate = tested on: DU-145 prostate
SNB-75 CNS = tested on: SNB-75 CNS
RXF 393 renal = tested on: RXF 393 renal
U251 CNS = tested on: U251 CNS
HS 578T breast = tested on: HS 578T breast
NCI/ADR-RES ovarian = tested on: NCI/ADR-RES ovarian

CN(C)CCOc1ccc2[nH]c(C(=O)N3CC(CCl)c4ccc(N)cc43)cc2c1 (stereo not given)
TGI (SN12C renal): > 22.3 µM | TGI (786-0 renal): 5.48 µM | TGI (BT-549 breast): 0.612 µM | TGI (SF-539 CNS): > 100 µM | TGI (NCI-H522 lung): 0.0683 µM | TGI (OVCAR-8 ovarian): > 35.8 µM | TGI (HOP-62 NSCLC): 0.69 µM | TGI (HCT-116 colon): 12.9 µM | TGI (A549 NSCLC): > 40.3 µM | TGI (KM12 colon): 0.294 µM | TGI (CAKI-1 renal): > 100 µM | TGI (ACHN renal): 1.07 µM | TGI (IGROV1 ovarian): > 67.6 µM | TGI (UO-31 renal): > 40.7 µM | TGI (SW-620 colon): > 100 µM | TGI (OVCAR-3 ovarian): 0.653 µM | TGI (SK-MEL-5 melanoma): 0.261 µM | TGI (CCRF-CEM leukemia): 0.975 µM | TGI (RPMI-8226 leukemia): 1.14 µM | TGI (OVCAR-4 ovarian): 0.46 µM | TGI (HCT-15 colon): 20.7 µM | TGI (M14 melanoma): 1.39 µM | TGI (NCI-H23 lung): 0.341 µM | TGI (SR leukemia): > 100 µM | TGI (OVCAR-5 ovarian): 18.2 µM | TGI (SF-268 CNS): 1.01 µM | TGI (EKVX NSCLC): 5.92 µM | TGI (K-562 leukemia): > 100 µM | TGI (SK-MEL-28 melanoma): 3.21 µM | TGI (MOLT-4 leukemia): 0.0565 µM | TGI (T-47D breast): > 100 µM | TGI (SNB-19 CNS): 21.8 µM | TGI (HCC-2998 colon): 0.823 µM | TGI (HOP-92 NSCLC): 4.18 µM | TGI (SK-OV-3 ovarian): > 100 µM

CON(C(=O)OC(C)(C)C)c1ccccc1
TGI (786-0 renal): > 100 µM | TGI (BT-549 breast): > 100 µM | TGI (SK-MEL-2 melanoma): > 100 µM | TGI (NCI-H522 lung): > 100 µM | TGI (OVCAR-8 ovarian): > 100 µM | TGI (HOP-62 NSCLC): > 100 µM | TGI (HCT-116 colon): > 100 µM | TGI (A549 NSCLC): > 100 µM | TGI (UACC-62 melanoma): > 100 µM | TGI (KM12 colon): > 100 µM | TGI (CAKI-1 renal): > 100 µM | TGI (SF-295 CNS): > 100 µM | TGI (ACHN renal): > 100 µM | TGI (UACC-257 melanoma): > 100 µM | TGI (HT29 colon): > 100 µM | TGI (HL-60(TB) leukemia): > 100 µM | TGI (IGROV1 ovarian): > 100 µM | TGI (UO-31 renal): > 100 µM | TGI (SW-620 colon): > 100 µM | TGI (MALME-3M melanoma): > 100 µM | TGI (OVCAR-3 ovarian): > 100 µM | TGI (NCI-H226 lung): > 100 µM | TGI (SK-MEL-5 melanoma): > 100 µM | TGI (CCRF-CEM leukemia): > 100 µM | TGI (A498 renal): > 100 µM | TGI (RPMI-8226 leukemia): > 100 µM | TGI (OVCAR-4 ovarian): > 100 µM | TGI (HCT-15 colon): > 100 µM | TGI (NCI-H460 lung): > 100 µM | TGI (COLO 205 colon): > 100 µM | TGI (PC-3 prostate): > 100 µM | TGI (MDA-MB-231 breast): > 100 µM | TGI (LOX IMVI melanoma): > 100 µM | TGI (M14 melanoma): > 100 µM | TGI (NCI-H23 lung): > 100 µM | TGI (MDA-MB-435): > 100 µM | TGI (SR leukemia): > 100 µM | TGI (OVCAR-5 ovarian): > 100 µM | TGI (SF-268 CNS): > 100 µM | TGI (TK-10 renal): > 100 µM | TGI (EKVX NSCLC): > 100 µM | TGI (K-562 leukemia): > 100 µM | TGI (SK-MEL-28 melanoma): > 100 µM | TGI (DU-145 prostate): > 100 µM | TGI (MOLT-4 leukemia): > 100 µM | TGI (SNB-75 CNS): > 100 µM | TGI (RXF 393 renal): > 100 µM | TGI (T-47D breast): > 100 µM | TGI (U251 CNS): > 100 µM | TGI (SNB-19 CNS): > 100 µM | TGI (HS 578T breast): > 100 µM | TGI (HCC-2998 colon): > 100 µM | TGI (NCI/ADR-RES ovarian): > 100 µM | TGI (HOP-92 NSCLC): > 100 µM | TGI (SK-OV-3 ovarian): > 100 µM
